In paper PMC11442132, “Discovery of β‐nitrostyrene derivatives as potential quorum sensing inhibitors for biofilm inhibition and antivirulence factor therapeutics against Serratia marcescens” (mLife, 2024):

Molecular target: T1, SmaR (Serratia marcescens, UniProt Q14RS3)
T1 construct: pure recombinant protein
Assay: microscale thermophoresis
Assay type: binding

T1 sequence (Q14RS3 1-248): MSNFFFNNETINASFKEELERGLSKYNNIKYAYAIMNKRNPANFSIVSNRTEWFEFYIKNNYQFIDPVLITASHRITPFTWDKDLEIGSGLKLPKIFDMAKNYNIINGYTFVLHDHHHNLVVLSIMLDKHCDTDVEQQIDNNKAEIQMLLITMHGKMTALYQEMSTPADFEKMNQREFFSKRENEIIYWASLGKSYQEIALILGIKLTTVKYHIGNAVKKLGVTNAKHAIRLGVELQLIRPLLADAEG

Q: Which Kd does the source give for `Cc1ccc(/C=C/[N+](=O)[O-])cc1` [compound 28, (E)‐1‐methyl‐4‐(2‐nitrovinyl)benzene] here?
A: 38.9 µM
